Consider seven cell lines from the supplement of paper PMC10307832.

Holding throughout (assay): relative viability (nuclei count vs DMSO), 5 days (fraction); higher = more cells survive
Compound in the test “AZ505 + OSI-027”: C1CCC(CC1)N(CCNCCC2=C3C(=C(C=C2)O)NC(=O)CO3)C(=O)CCNCCC4=CC(=C(C=C4)Cl)Cl [AZ505] + COc1cccc2cc(-c3nc([C@H]4CC[C@H](C(=O)O)CC4)n4ncnc(N)c34)[nH]c12 [OSI-027] (partner 0.5 µM)
In outline:
(§1)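 Relative viability is defined as nuclei in treated wells over nuclei in vehicle wells. Duplicate plates were run and medians reported. Lung cancer cell lines in 1536-well plates were dosed by pin tool one day after seeding, with one drug or with a fixed anchor-drug dose plus five library-drug doses (not always all listed) in √10 steps, and nuclei were counted after 5 days.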

Compound in the test “AZ505 + Tozasertib”: C1CCC(CC1)N(CCNCCC2=C3C(=C(C=C2)O)NC(=O)CO3)C(=O)CCNCCC4=CC(=C(C=C4)Cl)Cl [AZ505] + Cc1cc(Nc2cc(N3CCN(C)CC3)nc(Sc3ccc(NC(=O)C4CC4)cc3)n2)n[nH]1 [Tozasertib] (partner 0.1 µM)
In outline: as §1

Compound in the test “AZ505 + AZD7762”: C1CCC(CC1)N(CCNCCC2=C3C(=C(C=C2)O)NC(=O)CO3)C(=O)CCNCCC4=CC(=C(C=C4)Cl)Cl [AZ505] + NC(=O)Nc1cc(-c2cccc(F)c2)sc1C(=O)N[C@H]1CCCNC1 [AZD7762] (partner 0.2 µM)
The gist of the method: as §1

Compound in the test “Dactolisib + Alpelisib”: Cn1c(=O)n(-c2ccc(C(C)(C)C#N)cc2)c2c3cc(-c4cnc5ccccc5c4)ccc3ncc21 [Dactolisib] + Cc1nc(NC(=O)N2CCC[C@H]2C(N)=O)sc1-c1ccnc(C(C)(C)C(F)(F)F)c1 [Alpelisib] (partner 2 µM)
The gist of the method: as §1

As for NCI-H2405, the relative viability is 0.436 with AZ505 + OSI-027 (first compound 0.08 µM); 0.511 with AZ505 + OSI-027 (first compound 0.253 µM); 0.528 with AZ505 + OSI-027 (first compound 0.8 µM); 0.574 with AZ505 + OSI-027 (first compound 2.53 µM); 0.501 with AZ505 + OSI-027 (first compound 8 µM); 0.508 with AZ505 + Tozasertib (first compound 0.08 µM). In addition, the relative viability in the test with AZ505 + Tozasertib (first compound 0.253 µM) is 0.594; in the test with AZ505 + Tozasertib (first compound 0.8 µM) it was 0.45; in the test with AZ505 + Tozasertib (first compound 2.53 µM), 0.516; in the test with AZ505 + Tozasertib (first compound 8 µM), 0.503; with AZ505 + AZD7762 (first compound 0.08 µM), 0.45; with AZ505 + AZD7762 (first compound 0.8 µM), 0.605. Also, the relative viability with AZ505 + AZD7762 (first compound 2.53 µM) came to 0.605; in the test with AZ505 + AZD7762 (first compound 8 µM), 0.665; in the test with Dactolisib + Alpelisib (first compound 0.002 µM) it was 0.683; in the test with Dactolisib + Alpelisib (first compound 0.006325 µM), 0.647; with Dactolisib + Alpelisib (first compound 0.02 µM), 0.646; with Dactolisib + Alpelisib (first compound 0.06325 µM), 0.359. In addition, in the test with Dactolisib + Alpelisib (first compound 0.2 µM), the relative viability amounted to 0.273.
Regarding NCI-H322M, the relative viability in the test with AZ505 + OSI-027 (first compound 0.08 µM) was found to be 0.535; with AZ505 + OSI-027 (first compound 0.253 µM) it was 0.332; with AZ505 + OSI-027 (first compound 0.8 µM), 0.601; with AZ505 + OSI-027 (first compound 2.53 µM) it was 0.572; with AZ505 + OSI-027 (first compound 8 µM) it was 0.553; with AZ505 + Tozasertib (first compound 0.08 µM), 0.451. Moreover, the relative viability in the test with AZ505 + Tozasertib (first compound 0.253 µM) stood at 0.478; in the test with AZ505 + Tozasertib (first compound 0.8 µM), 0.467; with AZ505 + Tozasertib (first compound 2.53 µM), 0.484; with AZ505 + Tozasertib (first compound 8 µM), 0.465; in the test with AZ505 + AZD7762 (first compound 0.08 µM) it was 0.629; with AZ505 + AZD7762 (first compound 0.8 µM), 0.582. Further, the relative viability worked out at 0.616 in the test with AZ505 + AZD7762 (first compound 2.53 µM); 0.545 with AZ505 + AZD7762 (first compound 8 µM); 0.899 with Dactolisib + Alpelisib (first compound 0.002 µM); 0.839 with Dactolisib + Alpelisib (first compound 0.006325 µM); 0.8 in the test with Dactolisib + Alpelisib (first compound 0.02 µM); 0.609 with Dactolisib + Alpelisib (first compound 0.06325 µM). Besides, the relative viability with Dactolisib + Alpelisib (first compound 0.2 µM) stood at 0.511.
Regarding NCI-H2170, the relative viability stood at 0.743 in the test with AZ505 + OSI-027 (first compound 0.08 µM); 0.677 with AZ505 + OSI-027 (first compound 0.253 µM); 0.684 with AZ505 + OSI-027 (first compound 0.8 µM); 0.738 in the test with AZ505 + OSI-027 (first compound 2.53 µM); 0.793 in the test with AZ505 + OSI-027 (first compound 8 µM); 0.845 with AZ505 + Tozasertib (first compound 0.08 µM). The relative viability amounted to 0.715 in the test with AZ505 + Tozasertib (first compound 0.253 µM); 0.641 with AZ505 + Tozasertib (first compound 0.8 µM); 0.741 with AZ505 + Tozasertib (first compound 2.53 µM); 0.766 with AZ505 + Tozasertib (first compound 8 µM); 0.825 with AZ505 + AZD7762 (first compound 0.08 µM); 0.901 in the test with AZ505 + AZD7762 (first compound 0.253 µM). Further, the relative viability with AZ505 + AZD7762 (first compound 0.8 µM) turned out to be 0.821; in the test with AZ505 + AZD7762 (first compound 2.53 µM), 0.92; with AZ505 + AZD7762 (first compound 8 µM), 0.966; with Dactolisib + Alpelisib (first compound 0.002 µM) it was 0.787; with Dactolisib + Alpelisib (first compound 0.006325 µM), 0.754; with Dactolisib + Alpelisib (first compound 0.02 µM) it was 0.706. For the same cell line, the relative viability in the test with Dactolisib + Alpelisib (first compound 0.06325 µM) was found to be 0.479; with Dactolisib + Alpelisib (first compound 0.2 µM), 0.26.
With NCI-H1395, the relative viability was 0.685 in the test with AZ505 + OSI-027 (first compound 0.08 µM); 0.543 with AZ505 + OSI-027 (first compound 0.253 µM); 0.563 with AZ505 + OSI-027 (first compound 0.8 µM); 0.622 in the test with AZ505 + OSI-027 (first compound 2.53 µM); 0.604 with AZ505 + OSI-027 (first compound 8 µM); 0.781 in the test with AZ505 + Tozasertib (first compound 0.08 µM). For the same cell line, the relative viability amounted to 0.823 with AZ505 + Tozasertib (first compound 0.253 µM); 0.625 in the test with AZ505 + Tozasertib (first compound 0.8 µM); 0.695 in the test with AZ505 + Tozasertib (first compound 2.53 µM); 0.767 with AZ505 + Tozasertib (first compound 8 µM); 0.407 in the test with AZ505 + AZD7762 (first compound 0.08 µM); 0.413 in the test with AZ505 + AZD7762 (first compound 0.8 µM). The relative viability worked out at 0.386 with AZ505 + AZD7762 (first compound 2.53 µM); 0.382 in the test with AZ505 + AZD7762 (first compound 8 µM); 0.863 in the test with Dactolisib + Alpelisib (first compound 0.002 µM); 0.757 in the test with Dactolisib + Alpelisib (first compound 0.006325 µM); 1.23 in the test with Dactolisib + Alpelisib (first compound 0.02 µM); 0.602 in the test with Dactolisib + Alpelisib (first compound 0.06325 µM). Besides, the relative viability with Dactolisib + Alpelisib (first compound 0.2 µM) was 0.511.
For NCI-H358, the relative viability in the test with AZ505 + OSI-027 (first compound 0.08 µM) amounted to 0.715; with AZ505 + OSI-027 (first compound 0.253 µM), 0.769; with AZ505 + OSI-027 (first compound 0.8 µM), 0.652; with AZ505 + OSI-027 (first compound 2.53 µM), 0.556; with AZ505 + OSI-027 (first compound 8 µM), 0.767; in the test with AZ505 + Tozasertib (first compound 0.08 µM), 0.094. Moreover, the relative viability in the test with AZ505 + Tozasertib (first compound 0.253 µM) is 0.0964; in the test with AZ505 + Tozasertib (first compound 0.8 µM), 0.0966; with AZ505 + Tozasertib (first compound 2.53 µM), 0.108; with AZ505 + Tozasertib (first compound 8 µM), 0.104; with AZ505 + AZD7762 (first compound 0.08 µM), 0.466; with AZ505 + AZD7762 (first compound 0.253 µM), 0.52. The relative viability is 0.422 with AZ505 + AZD7762 (first compound 0.8 µM); 0.526 with AZ505 + AZD7762 (first compound 8 µM); 0.951 with Dactolisib + Alpelisib (first compound 0.002 µM); 0.786 with Dactolisib + Alpelisib (first compound 0.006325 µM); 0.718 with Dactolisib + Alpelisib (first compound 0.02 µM); 0.3 in the test with Dactolisib + Alpelisib (first compound 0.06325 µM). Besides, the relative viability with Dactolisib + Alpelisib (first compound 0.2 µM) is 0.18.
For NCI-H838, the relative viability came out at 0.402 with AZ505 + OSI-027 (first compound 0.08 µM); 0.438 with AZ505 + OSI-027 (first compound 0.253 µM); 0.402 with AZ505 + OSI-027 (first compound 0.8 µM); 0.34 with AZ505 + OSI-027 (first compound 2.53 µM); 0.398 in the test with AZ505 + OSI-027 (first compound 8 µM); 0.253 with AZ505 + Tozasertib (first compound 0.08 µM). For the same cell line, the relative viability in the test with AZ505 + Tozasertib (first compound 0.253 µM) stood at 0.286; in the test with AZ505 + Tozasertib (first compound 0.8 µM) it was 0.257; in the test with AZ505 + Tozasertib (first compound 2.53 µM), 0.268; in the test with AZ505 + Tozasertib (first compound 8 µM) it was 0.265; with AZ505 + AZD7762 (first compound 0.08 µM), 0.888; with AZ505 + AZD7762 (first compound 0.253 µM), 0.955. Besides, the relative viability came out at 0.936 with AZ505 + AZD7762 (first compound 0.8 µM); 0.951 with AZ505 + AZD7762 (first compound 2.53 µM); 0.985 in the test with AZ505 + AZD7762 (first compound 8 µM); 0.926 in the test with Dactolisib + Alpelisib (first compound 0.002 µM); 0.704 in the test with Dactolisib + Alpelisib (first compound 0.006325 µM); 0.699 in the test with Dactolisib + Alpelisib (first compound 0.02 µM). Also, the results for the relative viability with Dactolisib + Alpelisib (first compound 0.06325 µM) and in the test with Dactolisib + Alpelisib (first compound 0.2 µM) were 0.287 and 0.283, respectively.
As for CAL-12T, the relative viability with AZ505 + OSI-027 (first compound 0.08 µM) was determined as 0.545; in the test with AZ505 + OSI-027 (first compound 0.253 µM), 0.548; with AZ505 + OSI-027 (first compound 0.8 µM), 0.667; with AZ505 + OSI-027 (first compound 2.53 µM), 0.645; with AZ505 + OSI-027 (first compound 8 µM) it was 0.834; with AZ505 + Tozasertib (first compound 0.08 µM), 0.298. Also, the relative viability is 0.426 in the test with AZ505 + Tozasertib (first compound 0.253 µM); 0.308 with AZ505 + Tozasertib (first compound 0.8 µM); 0.303 with AZ505 + Tozasertib (first compound 2.53 µM); 0.302 in the test with AZ505 + Tozasertib (first compound 8 µM); 0.62 in the test with AZ505 + AZD7762 (first compound 0.08 µM); 0.647 with AZ505 + AZD7762 (first compound 0.253 µM). The relative viability in the test with AZ505 + AZD7762 (first compound 0.8 µM) worked out at 0.605; in the test with AZ505 + AZD7762 (first compound 2.53 µM), 0.575; in the test with AZ505 + AZD7762 (first compound 8 µM), 0.814; with Dactolisib + Alpelisib (first compound 0.002 µM), 1.53; with Dactolisib + Alpelisib (first compound 0.006325 µM) it was 1.13; in the test with Dactolisib + Alpelisib (first compound 0.02 µM) it was 1.2. The relative viability with Dactolisib + Alpelisib (first compound 0.06325 µM) came out at 0.205; with Dactolisib + Alpelisib (first compound 0.2 µM) it was 0.206.
